Experimental data from patent US9283176B2, “Benzimidazole anthelmintic compositions” (Zoetis Services LLC, priority 2008, dated 2016).

Columns and labels:
[1] = Stability studies: total moxidectin and triclabendazole levels after storage; assay type: physicochemical; settings: in Composition F, 25° C. or 40° C.; for Stability of the active during storage (in words): entire 6 month storage period
Procedure: Stability studies were conducted to ensure that a composition according to the present invention was stable. Composition F of Example 3 was prepared according to the process described in Example 1 and stored at either ambient (25° C.) or 40° C. for a total period of 6 months. At the conclusion of each storage period shown in Table V below, samples were tested for total moxidectin and triclabendazole levels.

[2] = Triclabendazole solubility in various lactone solvents; assay type: physicochemical
Procedure: Still further embodiments of anthelmintic compositions representative of the present invention are prepared according to the process described in Example 1 above, except that lactone solvents other than γ-hexalactone are employed. In particular, the compositions are prepared with one of the following lactone solvents: butyrolactone, δ-hexalactone, γ-dodecalactone, δ-nonalactone, δ-decalactone, γ-decalactone, and δ-dodecalactone.

| Stability of the active during storage (in words) [1] | Solvency in lactone solvents (in words) ([2]; lactone solvents of Table VIII and similar lactones and combinations) | Triclabendazole Solubility (% w/w) ([2]; solvent γ-butyrolactone) | Triclabendazole Solubility (% w/w) ([2]; solvent γ-decalactone) | Triclabendazole Solubility (% w/w) ([2]; solvent γ-dodecalactone) | Triclabendazole Solubility (% w/w) ([2]; solvent γ-hexalactone) | Triclabendazole Solubility (% w/w) ([2]; solvent γ-nonalactone) | Triclabendazole Solubility (% w/w) ([2]; solvent δ-decalactone) | Triclabendazole Solubility (% w/w) ([2]; solvent δ-dodecalactone) | Physical state of the active during storage (in words) ([1]; up to 6 months) | Compound |
| --- | --- | --- | --- | --- | --- | --- | --- | --- | --- | --- |
| remained stable and active | – | – | – | – | – | – | – | – | – | CO/N=C1\C[C@]2(C[C@@H]3C[C@@H](C/C=C(\C)C[C@@H](C)/C=C/C=C4\CO[C@@H]5[C@H](O)C(C)=C[C@@H](C(=O)O3)[C@]45O)O2)O[C@H](/C(C)=C/C(C)C)[C@H]1C [Moxidectin] |
| remained stable and active | surprisingly good solvency | >18.0 | 15.2 | 11.8 | 16.8 | 16.7 | 28.1 | 21.5 | remained in solution | CSc1nc2cc(Cl)c(Oc3cccc(Cl)c3Cl)cc2[nH]1 [Triclabendazole, 5-chloro-6(2,3-dichlorophenoxy)-2-methylthio-1H-benzimidazole] |
